Non-standard residues stand in square brackets, D forms with d. Residues, ends and D or L forms follow the SMILES beside them. *: point of attachment. Tle = CC(C)(C)[C@H](N)C(=O)O; X1 = C[C@@H](CCCCCN)C(=O)*
Tested on: rats
Experiment: Hotplate assay
Type: in vivo, rat
From the text: Animals. Experimentally naïve male Sprague-Dawley rats from Charles River Laboratories, Raleigh, N.C. (230-260 g) or Harlan, Prattville Ala. (240-280 g), were maintained 4 per cage in animal quarters on a regular light/dark cycle (lights on 0600-1800) with ad libitum food and water for approximately 1 week before the experiment. The range of body weights on the 2 days of testing was 230-260 grams. The experiment was done on one day, with animals allowed to recover for three days before experiments are repeated.
Peptide Preparation. Test articles are prepared at the desired concentration in saline for either IP injection or gavage administration with N=6 for each dose and vehicle. Morphine (5 mg/kg) is used as a control for certain protocols. […] Apomorphine HCl (Sigma-Aldrich, St. Louis, Mo.) was dissolved in distilled water at a concentration of 5 mg/mL within 40 minutes of administration for injection at 1 mL/kg S.C. to give a dose of 5 mg/kg. When complete ED50s are determined, dosing range of the peptide will be 10, 3, 1, 0.3, 0.1 of the estimated ED50, covering two log orders of range.
The Hotplate Assay. The hotplate assay, a standard rat model for […] pain (see Le Bars et al., Pharmacol. Rev. 53: 597-652 (2001) and Chapman et al., Pain 22:1-31 (2002)), was performed as follows. A hotplate maintained at 52° C. to 53° C. was enclosed on four sides in a plexiglass chamber that extended 6 in. above the plate. Animals were placed on the plate, and the latency between the time a rat was placed on the surface and when it lifts or licks a back paw (indicative of pain sensation) was determined. Animals are removed immediately at the cutoff latency of 30 seconds. Assays are scored as the percent of maximal possible effect (% MPE) defined as 100%, which corresponds to the rats remaining on the hotplate for 30 seconds without responding. Thus, % MPE are calculated using the following equation: % MPE=[(post-drug latency−pre-drug latency)/(cut-off pre-drug latency)]×100%. N=6 or greater for all experiments.
Tmax indicates the time after dosing in which a maximum response was observed.

Compound: CC(C)C[C@H](NC(=O)[C@@H](NC(=O)[C@H](Cc1ccc(O)cc1)NC(=O)[C@@H]1CCCN1C(=O)[C@H](CCCNC(=N)N)NC(=O)[C@@H](C)CCCCCN)C(C)(C)C)C(=O)O [ABS201, hLys-Arg-Pro-Tyr-t-Leu-Leu] (X1-RPY[Tle]L-OH)
- analgesic activity (% MPE) compared with morphine (ABS201 5 mg/kg, Morphine 5 mg/kg): comparable in extent and duration to morphine
- tolerance to the analgesic activity (dosed daily for five days): do not become tolerant
- MPE (I.P.) (hotplate, IP at 10 mg/kg): 100%
- Tmax (I.P.) of % MPE (hotplate, IP at 10 mg/kg): 15-45
- MPE (oral) (hotplate, orally at 20 mg/kg): 39%
- Tmax (Oral) of % MPE (hotplate, orally at 20 mg/kg): 30

— patent US20100130432A1, “Non-Natural Amino Acids and Neurotensin Analogues Thereof” (priority 2005, published 2010)
